pIC50: −log10 of the molar value.
How the values were obtained:
Assay type in all cases: cell-based
[1] = system: HCT116 Bax −/− colon cancer cell line; assay: Monolayer growth inhibition assay (MTT/MTS)
Source text: (§1) The MTT is a colorimetric assay to determine the cell proliferation rate. The yellow tetrazolium MTT (3-(4, 5-dimethylthiazolyl-2)-2, 5-diphenyltetrazolium bromide) is reduced, by metabolically active cells, in part by the action of dehydrogenase enzymes, to generate reducing equivalents such as NADH and NADPH. The resulting intracellular purple formazan can be solubilized and quantified by spectrophotometric means. The signals produced is directly proportional to the cell numbers. Describing the MTT assay in detail, experiments were done using six-point or 9 point drug titrations in multi-well tissue culture dishes, with outer rows left empty. Cells were suspended in complete media at densities of between 10^3 and 10^4 cell/ml, respectively, and added per well. The appropriate medium (200 μl) was then added. Twenty-four hours later, 10 μl of MTS solution, were added to one plates to determine the activity at the time of compound addition (T0). This plate was incubated at 37° for 4 hours and the optical density was measured on a Molecular Devices Thermomax at 490 nm using the Softmax program. The T0 plate served as a reference for initial activity at the beginning of the experiment.
(§2) Compound addition began 24 hours after seeding, the same time as the T0 determination. Serial dilutions at 4-fold 2-fold, 1-fold, 0.5-fold, 0.25-fold and 0.125-fold of previously determined IC50 values of each compound were made in a 96-deep well plate with the highest concentrations on the edge of the plate. Each of the six dilutions were added in triplicate and complete medium was added to the empty outer rows, without cells. The compounds were added to the plates singly or in combination with Compound III (LBH589). The plates were incubated at 37° C. for 72 hours from seeding. The MTS solution was added (as for the T0 plate) and read four hours later. In order to analyze the data, the average value of media alone (background) was subtracted from each experimental well and the triplicate values were averaged for each compound dilution. The following formulas were used to calculate percent growth.
(§3) If X>T0, % Growth=100×(X−T0)/(GC−T0))
(§4) If X<T0, % Growth=100×(X−T0)/T0)
(§5) T0=average value of T0 minus background
(§6) GC=average value of untreated cells (in triplicate) minus background X=average value, of compound treated cells (in triplicate) minus background
(§7) IC50 the concentration of LBH589 required to inhibit cell growth by 50% and LD50s the concentration required to reduce cell number (kill cells) to 50% the original innoculum were determined. The “% Growth” was plotted against compound concentration and used to calculate IC50s and LD50s, employing the user-defined spline function in Microsoft Excel.
(§8) Colon cancer cell lines were treated with DMSO vehicle control or varying concentrations of LBH589 for 3 days. Cell proliferation was measured on the day of cell plating and on the third day post-treatment. IC50 and LD50 values were calculated as described above.

[2] = system: DLD-1 colon cancer cell line; assay: Monolayer growth inhibition assay (MTT/MTS)
Source text: as §1, §2, §3, §4, §5, §6, §7, §8

[3] = system: Colo320 colon cancer cell line; assay: Monolayer growth inhibition assay (MTT/MTS)
Source text: as §1, §2, §3, §4, §5, §6, §7, §8

[4] = system: SW48 colon cancer cell line; assay: Monolayer growth inhibition assay (MTT/MTS)
Source text: as §1, §2, §3, §4, §5, §6, §7, §8

[5] = system: HT115 colon cancer cell line; assay: Monolayer growth inhibition assay (MTT/MTS)
Source text: as §1, §2, §3, §4, §5, §6, §7, §8

[6] = system: HCT8 colon cancer cell line; assay: Monolayer growth inhibition assay (MTT/MTS)
Source text: as §1, §2, §3, §4, §5, §6, §7, §8

[7] = system: HT29 colon cancer cell line; assay: Monolayer growth inhibition assay (MTT/MTS)
Source text: as §1, §2, §3, §4, §5, §6, §7, §8

[8] = system: Colo205 colon cancer cell line; assay: Monolayer growth inhibition assay (MTT/MTS)
Source text: as §1, §2, §3, §4, §5, §6, §7, §8

[9] = system: Colo678 colon cancer cell line; assay: Monolayer growth inhibition assay (MTT/MTS)
Source text: as §1, §2, §3, §4, §5, §6, §7, §8

[10] = system: T84 colon cancer cell line; assay: Monolayer growth inhibition assay (MTT/MTS)
Source text: as §1, §2, §3, §4, §5, §6, §7, §8

[11] = system: CL-11 colon cancer cell line; assay: Monolayer growth inhibition assay (MTT/MTS)
Source text: as §1, §2, §3, §4, §5, §6, §7, §8

[12] = system: CaCo2 colon cancer cell line; assay: Monolayer growth inhibition assay (MTT/MTS)
Source text: as §1, §2, §3, §4, §5, §6, §7, §8

[13] = system: MDST8 colon cancer cell line; assay: Monolayer growth inhibition assay (MTT/MTS)
Source text: as §1, §2, §3, §4, §5, §6, §7, §8

[14] = system: SW837 colon cancer cell line; assay: Monolayer growth inhibition assay (MTT/MTS)
Source text: as §1, §2, §3, §4, §5, §6, §7, §8

[15] = system: C2Bbe-1 colon cancer cell line; assay: Monolayer growth inhibition assay (MTT/MTS)
Source text: as §1, §2, §3, §4, §5, §6, §7, §8

[16] = system: 36 colon cancer cell lines; assay: Monolayer growth inhibition assay, panel summary; settings: 3 days treatment
Source text: as §1, with “Twenty-four hours later, 10 μl of MTS solution, were added to one plates to determine the activity at the time of compound addition (T0).” left out, “The T0 plate served as a reference for initial activity at the beginning of the experiment.” left out
(§9) Compound addition began 24 hours after seeding, the same time as the T0 determination. […] The MTS solution was added (as for the T0 plate) and read four hours later. […]
as §8

[17] = system: 12 pancreatic cancer cell lines; assay: Cell proliferation assay, panel summary; settings: 3 days treatment
Source text: as §1, with “Twenty-four hours later, 10 μl of MTS solution, were added to one plates to determine the activity at the time of compound addition (T0).” left out, “The T0 plate served as a reference for initial activity at the beginning of the experiment.” left out
as §9
Pancreatic cancer cell lines were treated with DMSO vehicle control or varying concentrations of LBH589 for 3 days. Cell proliferation was measured on the day of cell plating and on the third day post-treatment. IC50 and LD50 values were calculated as described above.

[18] = system: 19 pancreatic cancer cell lines; assay: Cell proliferation assays, panel of 19 pancreatic cancer cell lines, 6 days; settings: 6 days treatment
Experimental: A panel of 19 pancreatic cancer cell lines was independently assessed in cell proliferation assays. Cells were treated with DMSO vehicle control or varying concentrations of LBH589 for 6 days.

SMILES: Cc1[nH]c2ccccc2c1CCNCc1ccc(/C=C/C(=O)NO)cc1 [LBH589, N-hydroxy-3-[4-[[[2-(2-methyl-1H-indol-3-yl)ethyl]-amino]methyl]phenyl]-2E-2-propenamide]
- LD50 ([1]; 3 days, concentration reducing cell number to 50% of original inoculum): >10 µM
- pIC50 ([1]; Homo sapiens, HCT-116, 72 h, 3 days treatment): 8.76
- LD50 ([2]; DLD-1, 3 days, concentration reducing cell number to 50% of original inoculum): 296.27 nM
- pIC50 ([2]; Homo sapiens, 72 h, DLD-1, 3 days treatment): 7.21
- LD50 ([3]; Colo320, 3 days, concentration reducing cell number to 50% of original inoculum): 82.90 nM
- pIC50 ([3]; Homo sapiens, COLO 320, 72 h, Colo320, 3 days treatment): 8.19
- pIC50 ([4]; Homo sapiens, 72 h, SW48, 3 days treatment): 8.89
- LD50 ([4]; SW48, 3 days, concentration reducing cell number to 50% of original inoculum): 13.09 nM
- pIC50 ([5]; 72 h, HT115, 3 days treatment): 8.46
- LD50 ([5]; HT115, 3 days, concentration reducing cell number to 50% of original inoculum): 31.02 nM
- LD50 ([6]; HCT8, 3 days, concentration reducing cell number to 50% of original inoculum): 77.70 nM
- pIC50 ([6]; Homo sapiens, HCT-8, 72 h, HCT8, 3 days treatment): 8.31
- LD50 ([7]; HT29, 3 days, concentration reducing cell number to 50% of original inoculum): 70.23 nM
- pIC50 ([7]; Homo sapiens, HT-29, 72 h, HT29, 3 days treatment): 8.55
- LD50 ([8]; Colo205, 3 days, concentration reducing cell number to 50% of original inoculum): 33.52 nM
- pIC50 ([8]; Homo sapiens, COLO 205, 72 h, Colo205, 3 days treatment): 7.83
- LD50 ([9]; Colo678, 3 days, concentration reducing cell number to 50% of original inoculum): 45.52 nM
- pIC50 ([9]; Homo sapiens, COLO-678, 72 h, Colo678, 3 days treatment): 8.25
- pIC50 ([10]; 72 h, T84, 3 days treatment): 8.67
- LD50 ([10]; T84, 3 days, concentration reducing cell number to 50% of original inoculum): 32.82 nM
- pIC50 ([11]; 72 h, CL-11, 3 days treatment): 8.45
- LD50 ([11]; CL-11, 3 days, concentration reducing cell number to 50% of original inoculum): 25.92 nM
- LD50 ([12]; CaCo2, 3 days, concentration reducing cell number to 50% of original inoculum): 45.55 nM
- pIC50 ([12]; Homo sapiens, Caco-2, 72 h, CaCo2, 3 days treatment): 7.86
- pIC50 ([13]; 72 h, MDST8, 3 days treatment): 8.31
- LD50 ([13]; MDST8, 3 days, concentration reducing cell number to 50% of original inoculum): 48.44 nM
- pIC50 ([14]; Homo sapiens, 72 h, SW837, 3 days treatment): 9.18
- LD50 ([14]; SW837, 3 days, concentration reducing cell number to 50% of original inoculum): 11.46 nM
- LD50 ([15]; C2Bbe-1, 3 days, concentration reducing cell number to 50% of original inoculum): 243.12 nM
- pIC50 ([15]; Homo sapiens, C2BBe1, 72 h, C2Bbe-1, 3 days treatment): 7.56
- IC50 values ([16]; all 36 colon cancer cell lines): low nanomolar
- LD50 ([16]; great majority of the colon cancer cell lines (n=31)): < 1 µM
- IC50 values ([17]; all 12 pancreatic cancer cell lines): low nanomolar
- LD50 ([17]; majority of the pancreatic cancer cell lines (n=10)): < 1 µM
- LD50 ([18]; 18 of the 19 pancreatic cancer cell lines): < 1 µM
- IC50 values ([18]; all 19 pancreatic cancer cell lines): low nanomolar

Source: patent publication US20100137398A1, “USE OF HDAC INHIBITORS FOR THE TREATMENT OF GASTROINTESTINAL CANCERS” (NOVARTIS AG, priority 2007, published 2010)
